# Source: patent publication US20090209610A1, “Polymorphic form of 6-(4-chlorophenyl)-2,2-dimethyl-7-Phenyl-2,3-Dihydro-1h-Pyrrolizin-5-Ylacetic Acid” (Merckle GmgH, priority 2005, published 2009)
# Key:
# [1] = molecular target: cyclooxygenase (CO) and lipoxygenase (LO); test: inhibitory effect on the enzymes cyclooxygenase and lipoxygenase; format: biochemical; conditions: ratio of IC50 lipoxygenase to IC50 cyclooxygenase
# Description: It is notable for a strong analgesic effect and for a similar inhibitory effect on the enzymes cyclooxygenase (CO) and lipoxygenase (LO) (IC50LO/IC50CO˜1). It can therefore be used in the treatment of disorders associated with a change in arachidonic acid metabolism. Particular mention should be made of rheumatoid diseases and the prevention of allergy-induced disorders. […] In addition, it can be used for the treatment of hypercholesterolaemia.
# [2] = particle size measurement by laser diffraction (Helios-Sympatec); format: physicochemical; conditions: for Particle size distribution: Table 3, overall range
# Method: Polymorph B has a narrow particle size distribution: d10-d90=1.8 μm-15.9 μm. The average particle size is 6.7 μm. Particle size measurements were carried out by means of laser diffraction spectra using the Helios-Sympatec system: dry disperser RODOS; focal length 50 mm.
# [3] = stability of the crystalline form during drying and storage, chemical stability; format: physicochemical
# Description: Polymorph B has a crystalline structure and high purity. Owing to the crystalline structure, polymorph B is stable during drying and storage. No phase transitions and no secondary aggregations are to be observed.
# Surface phenomena such as electrostatic charging, adhesion, adsorption etc. occur to a distinctly smaller extent by comparison with polymorph A. The crystal structure additionally results in a high chemical stability. Owing to the narrow particle size distribution compared with polymorph A, it is possible to employ polymorph B directly for producing pharmaceutical formulations. An additional grinding step is unnecessary.
IC50LO/IC50CO [1],Particle size distribution [2],average particle size ([2]; laser diffraction) [μm],"particle size distribution d10 ([2]; laser diffraction, dry disperser RODOS, focal length 50 mm) [μm]",stability during drying and storage ([3]; no phase transitions and no secondary aggregations observed),chemical stability ([3]; resulting from the crystal structure),Compound
~1,0.5-70 μm,6.7,1.8,stable,high,"CC1(C)Cc2c(-c3ccccc3)c(-c3ccc(Cl)cc3)c(CC(=O)O)n2C1 [Polymorph B, 6-(4-chlorophenyl)-2,2-dimethyl-7-phenyl-2,3-dihydro-1H-pyrrolizin-5-ylacetic acid]"
,2-500 μm,,,,,"CC1(C)Cc2c(-c3ccccc3)c(-c3ccc(Cl)cc3)c(CC(=O)O)n2C1 [Polymorph A, 6-(4-chlorophenyl)-2,2-dimethyl-7-phenyl-2,3-dihydro-1H-pyrrolizin-5-ylacetic acid]"
